Measurements reported in US20030054988A1, “Modified plasminogen related peptide fragments and their use as angiogenesis inhibitors” (priority 2000, published 2003).

How the values were obtained:
[1] = test system: human umbilical vein endothelial cell (HUVEC); assay: VEGF-induced HUVEC migration; type: cell-based; settings: VEGF-induced/stimulated; read-out: inhibition of VEGF-induced HUVEC migration (potency class)
Description: (§1) The assay used in these experiments is described by Ji et al. in Biochem. Biophys. Res. Commun. 1998 247:414-419. […] In addition, the modified peptide fragment BMS-291242 (SEQ ID NO: 12) was an extremely potent inhibitor of bFGF-induced HUVEC migration.

[2] = test system: human umbilical vein endothelial cell (HUVEC); assay: bFGF-induced HUVEC migration; type: cell-based
Description: as §1

[3] = test system: endothelial cells in the matrigel plug; assay: In vivo Matrigel plug angiogenesis model; settings: 100 μM/plug, peptide embedded in matrigel, bFGF stimulation, nude mice
Protocol: Modified peptide fragments of the present invention were also evaluated in the matrigel plug model to determine their in vivo anti-angiogenic activities. To minimize the effects caused by differential pharmacokinetic properties of these compounds, the matrigel was prepared together with these peptides and the mixture was implanted into nude mice.
MATRIGEL was mixed with basic fibroblast growth factors at a final concentration of 300 μg/ml. Peptide fragments at selected doses were embedded with the MATRIGEL mixture and injected subcutaneously into mice. The animals were allowed to grow for 7 days. The plugs were then excised and the number of endothelial cells in the plug were examined histologically.

[4] = test system: HUVEC; assay: HUVEC proliferation in response to mitogenic stimulation; type: cell-based, human
Description: The anti-proliferative effects of the modified peptide fragments on endothelial cells in response to different mitogenic stimulation were also examined. The assay used in these experiments is described by Cao et al. in J. Biol. Chem. 1997 272(36):22924-22928. The modified peptide fragment BMS-291102 (SEQ ID NO: 2) was an extremely potent inhibitor of bFGF-elicited HUVEC proliferation.

[5] = bFGF-induced, read-out: inhibition of bFGF-induced HUVEC migration (potency class)

Row | Sequence | IC50 [1] [µM] | IC50 [2, 5] [µM] | reduction of number of endothelial cells in matrigel plug / inhibition of bFGF-elicited in vivo angiogenesis [3] | also measured
1 | WAAQEPHRHSIFTPET [BMS-291209, Ac-WAAQEPHRHSIFTPET-NH2] | < 0.01 | < 0.1 |  | 
2 | NYARNPDGDVGGPWAY [BMS-291203, Ac-NYARNPDGDVGGPWAY-NH2] |  |  | effectively reduced the number of endothelial cells | 
3 | TTNPRKLYDYADVPQA [BMS-291205, Ac-TTNPRKLYDYADVPQA-NH2] | < 0.1 |  |  | IC50 ([2]; stimulus not given, presumably bFGF, read-out: IC50, marginal inhibitory activity (HUVEC migration)): 1 µM
4 | AQDWAAQEPHRHSIFTPETNPRAGLEKNYA [BMS-291242] |  | < 0.01 | significantly inhibited | anti-proliferative activity on endothelial cells ([4]; mitogenic stimulus not given): moderate anti-proliferative activity
5 | VTGTPAQDWAAQEPHR [BMS-291102, Ac-VTGTPAQDWAAQEPHR-NH2] |  |  | effectively reduced the number of endothelial cells | IC50 ([4]; bFGF-elicited, read-out: inhibition of bFGF-elicited HUVEC proliferation (potency class)): < 0.01 µM
6 | NYARNPDGDVGGPWAYTTNPRKLYDYADVPQA [BMS-291245] |  |  | significantly inhibited | 
